Literature values in US5370879A, “Formulations and their use in the treatment of neurological diseases” (Elan Corporation, plc, priority 1990, dated 1994).

What was measured:
MS patients [1] = details: orally in multiple daily doses
[2] = system: patients with Alzheimer's disease
MS patients [3] = system: MS patients
[4] = system: potassium ion flow in nerve impulse transmission
[5] = orally in multiple daily doses over 2-5 days

Compound | specific neurological deficits (MS patients [1]) | visual evoked response latencies (MS patients [1]) | mental functions [2] | conduction of nerve impulses (MS patients [3]) | symptoms in MS patients (MS patients [3]) | improvements noted in clinical trials (MS patients [3]; [5]) | side effects (MS patients [3]; [5]) | conduction in blocked demyelinated nerves [4] | potassium ion flow in nerve impulse transmission [4]
Nc1ccncc1N [3,4-DAP, 3,4-Di-aminopyridine] | improve specific neurological deficits | improve | – | – | – | – | – | – | –
Nc1ccncc1 [Example 4-AP, 4-Aminopyridine] | – | – | improve the mental functions | improve the conduction of nerve impulses | alleviating symptoms in MS patients | mild to marked improvements | minimal side effects | effective in restoring conduction in blocked demyelinated nerves | slow the potassium ion flow
